Data on 71 molecules can be found in patent US8211935B2, “Heterocyclic derivatives for modulation of calcium channels” (Vertex Pharmaceuticals Incorporated, priority 2004, dated 2012).

Like-named read-outs stand apart in the source and are kept apart here.

The assay addresses T1, CaV2.2 (Homo sapiens, UniProt Q00975).
T1 construct: expressed in transfected cells; host or cells: HEK293
Put plainly: VIPR optical membrane potential assay with electrical stimulation. The format is cell-based. In short, it runs like this: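 HEK293 cells stably expressing CaV2.2, stained with CC2-DMPE (10 μM final) and oxonol voltage-sensitive dyes, compound added with BaCl2. Membrane potential response evoked by 3-5 s electrical stimulation. Read as background-subtracted 460/580 nm emission ratio, response R=Rf/Ri, normalized to mibefradil positive and no-drug negative controls.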

[1] abbreviates: Table 3, biological assay data, read-out: IC50.

T1 sequence (Q00975 whole entry): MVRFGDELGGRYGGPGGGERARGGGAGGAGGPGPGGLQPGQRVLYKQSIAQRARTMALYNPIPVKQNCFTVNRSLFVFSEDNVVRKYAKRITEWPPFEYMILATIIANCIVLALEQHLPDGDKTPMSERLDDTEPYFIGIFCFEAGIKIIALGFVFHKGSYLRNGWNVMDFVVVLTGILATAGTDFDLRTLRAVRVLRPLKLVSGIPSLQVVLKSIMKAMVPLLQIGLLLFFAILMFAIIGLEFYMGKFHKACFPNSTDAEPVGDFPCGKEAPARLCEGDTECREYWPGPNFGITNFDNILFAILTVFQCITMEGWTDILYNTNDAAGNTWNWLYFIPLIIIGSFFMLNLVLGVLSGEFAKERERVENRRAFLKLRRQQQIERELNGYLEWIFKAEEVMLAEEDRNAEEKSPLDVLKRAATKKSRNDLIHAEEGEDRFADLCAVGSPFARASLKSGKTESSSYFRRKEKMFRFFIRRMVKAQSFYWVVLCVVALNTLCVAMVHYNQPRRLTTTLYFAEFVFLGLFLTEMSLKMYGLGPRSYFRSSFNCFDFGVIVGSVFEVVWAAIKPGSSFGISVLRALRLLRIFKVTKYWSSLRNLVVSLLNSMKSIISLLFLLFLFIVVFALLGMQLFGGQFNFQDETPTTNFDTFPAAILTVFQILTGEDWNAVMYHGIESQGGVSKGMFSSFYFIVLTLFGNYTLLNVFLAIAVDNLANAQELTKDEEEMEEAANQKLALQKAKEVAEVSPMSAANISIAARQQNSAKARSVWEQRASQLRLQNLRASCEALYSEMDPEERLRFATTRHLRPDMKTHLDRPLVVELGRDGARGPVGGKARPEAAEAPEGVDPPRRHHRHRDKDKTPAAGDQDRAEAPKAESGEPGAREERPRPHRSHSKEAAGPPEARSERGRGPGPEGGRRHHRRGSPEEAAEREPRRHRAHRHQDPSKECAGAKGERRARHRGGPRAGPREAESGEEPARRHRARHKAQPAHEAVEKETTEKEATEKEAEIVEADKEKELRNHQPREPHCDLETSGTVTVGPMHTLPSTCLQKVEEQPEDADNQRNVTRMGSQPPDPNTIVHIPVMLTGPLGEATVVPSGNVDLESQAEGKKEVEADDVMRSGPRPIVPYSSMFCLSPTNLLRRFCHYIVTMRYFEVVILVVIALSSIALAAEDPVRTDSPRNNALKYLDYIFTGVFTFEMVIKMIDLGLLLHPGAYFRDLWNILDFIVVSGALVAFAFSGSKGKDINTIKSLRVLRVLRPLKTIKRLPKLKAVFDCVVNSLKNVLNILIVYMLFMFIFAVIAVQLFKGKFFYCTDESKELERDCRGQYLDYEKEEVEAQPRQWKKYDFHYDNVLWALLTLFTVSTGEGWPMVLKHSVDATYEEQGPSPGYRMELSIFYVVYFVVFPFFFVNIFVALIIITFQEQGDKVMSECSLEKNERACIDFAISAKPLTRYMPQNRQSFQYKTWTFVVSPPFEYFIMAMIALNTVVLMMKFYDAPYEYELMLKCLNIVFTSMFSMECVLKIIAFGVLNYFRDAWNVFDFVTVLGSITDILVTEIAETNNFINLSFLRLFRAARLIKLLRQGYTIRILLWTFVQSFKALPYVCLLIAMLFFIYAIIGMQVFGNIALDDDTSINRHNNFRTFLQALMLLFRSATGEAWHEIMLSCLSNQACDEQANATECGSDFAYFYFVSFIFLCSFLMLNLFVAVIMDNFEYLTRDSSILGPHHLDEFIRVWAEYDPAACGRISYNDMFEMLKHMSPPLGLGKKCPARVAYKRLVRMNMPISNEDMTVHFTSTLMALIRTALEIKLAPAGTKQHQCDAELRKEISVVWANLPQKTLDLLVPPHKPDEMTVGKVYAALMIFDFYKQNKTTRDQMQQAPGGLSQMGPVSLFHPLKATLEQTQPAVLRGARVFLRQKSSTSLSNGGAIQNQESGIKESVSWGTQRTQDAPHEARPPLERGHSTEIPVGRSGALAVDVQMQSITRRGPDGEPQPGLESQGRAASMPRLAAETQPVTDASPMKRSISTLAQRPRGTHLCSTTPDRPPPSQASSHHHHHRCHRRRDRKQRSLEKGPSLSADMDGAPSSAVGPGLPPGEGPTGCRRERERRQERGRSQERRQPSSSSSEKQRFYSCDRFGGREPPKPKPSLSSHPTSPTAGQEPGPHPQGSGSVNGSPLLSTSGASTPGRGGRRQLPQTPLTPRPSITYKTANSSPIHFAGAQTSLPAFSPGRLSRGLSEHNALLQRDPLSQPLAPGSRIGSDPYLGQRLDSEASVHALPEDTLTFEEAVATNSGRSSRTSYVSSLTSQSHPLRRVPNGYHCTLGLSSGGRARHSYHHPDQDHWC
T1 sequence (P54284 whole entry partner): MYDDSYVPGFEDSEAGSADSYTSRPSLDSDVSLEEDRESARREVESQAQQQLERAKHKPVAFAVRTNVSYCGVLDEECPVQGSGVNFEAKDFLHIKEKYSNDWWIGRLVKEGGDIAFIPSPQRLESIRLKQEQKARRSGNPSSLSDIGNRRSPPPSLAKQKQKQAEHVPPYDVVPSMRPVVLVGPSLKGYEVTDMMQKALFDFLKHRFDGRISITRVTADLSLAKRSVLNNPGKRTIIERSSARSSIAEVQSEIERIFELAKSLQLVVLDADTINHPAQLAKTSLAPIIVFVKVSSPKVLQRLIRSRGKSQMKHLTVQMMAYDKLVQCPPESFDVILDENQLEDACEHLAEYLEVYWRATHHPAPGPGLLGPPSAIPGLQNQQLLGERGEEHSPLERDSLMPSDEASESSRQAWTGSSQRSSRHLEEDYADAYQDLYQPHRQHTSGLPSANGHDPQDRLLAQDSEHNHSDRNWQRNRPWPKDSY
T1 sequence (P54289 25-946 partner limits assumed): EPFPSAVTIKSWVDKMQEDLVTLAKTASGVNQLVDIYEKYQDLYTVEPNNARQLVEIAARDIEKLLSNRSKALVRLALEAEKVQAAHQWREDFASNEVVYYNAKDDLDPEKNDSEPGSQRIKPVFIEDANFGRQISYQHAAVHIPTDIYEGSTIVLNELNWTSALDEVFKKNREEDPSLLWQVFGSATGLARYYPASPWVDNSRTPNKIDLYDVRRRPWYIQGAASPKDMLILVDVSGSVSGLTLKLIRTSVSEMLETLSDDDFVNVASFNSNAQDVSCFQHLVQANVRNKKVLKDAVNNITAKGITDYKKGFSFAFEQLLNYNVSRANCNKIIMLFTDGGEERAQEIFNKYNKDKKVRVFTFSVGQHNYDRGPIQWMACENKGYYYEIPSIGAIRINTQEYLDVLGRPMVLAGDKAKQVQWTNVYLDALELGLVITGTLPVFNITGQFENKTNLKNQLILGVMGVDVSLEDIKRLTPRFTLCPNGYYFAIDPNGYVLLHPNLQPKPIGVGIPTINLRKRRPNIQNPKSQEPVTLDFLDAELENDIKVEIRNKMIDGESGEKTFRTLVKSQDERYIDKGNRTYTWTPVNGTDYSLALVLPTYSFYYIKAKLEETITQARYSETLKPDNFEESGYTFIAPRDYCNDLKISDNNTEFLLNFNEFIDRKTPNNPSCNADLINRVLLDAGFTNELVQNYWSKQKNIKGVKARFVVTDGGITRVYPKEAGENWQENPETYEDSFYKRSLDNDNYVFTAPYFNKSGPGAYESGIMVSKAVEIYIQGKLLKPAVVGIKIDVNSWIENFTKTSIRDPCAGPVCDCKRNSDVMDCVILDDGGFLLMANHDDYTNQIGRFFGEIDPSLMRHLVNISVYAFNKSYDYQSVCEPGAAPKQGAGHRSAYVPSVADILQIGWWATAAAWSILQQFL
T1 sequence (P54289 947-1103 partner limits assumed): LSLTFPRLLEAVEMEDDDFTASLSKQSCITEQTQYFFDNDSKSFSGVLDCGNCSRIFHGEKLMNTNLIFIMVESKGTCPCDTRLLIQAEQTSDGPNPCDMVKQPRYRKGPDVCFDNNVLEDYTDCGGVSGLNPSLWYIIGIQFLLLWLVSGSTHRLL

As to `Cc1c(C(=O)N2CCC3(CC2)OCCO3)oc2ccc(S(=O)(=O)N3CCCCC3)cc12` [compound 173], the 50% inhibitory concentration (IC50) – broadly, the concentration needed to halve the response being measured – was 5 to 20 µM. On to `Cc1c(C(=O)NC2CCCC2)n(C)c2ccc(S(=O)(=O)N3CCC(C)CC3)cc12` [compound 174], for which, under setting [1], the IC50 was below 5 µM. `CCOC(=O)C1CCN(C(=O)c2oc3ccc(S(=O)(=O)N4CCC(C)CC4)cc3c2C)CC1` [compound 176]: under setting [1], the IC50 was below 5 µM.

With `Cc1c(C(=O)NC2CCCC2)oc2ccc(S(=O)(=O)N3CCCC(C)C3)cc12` (centres unmarked) [compound 177], the IC50 under setting [1] is below 5 µM.

In the case of `Cc1c(C(=O)N2CCCC2)oc2ccc(S(=O)(=O)N3CCCC(C)C3)cc12` (centres unmarked) [compound 178], under setting [1], the concentration for half-maximal inhibition (IC50) was in the range of 5 to 20 µM. The same measure, in the same setting: next, `CCN(CC)S(=O)(=O)c1ccc2oc(C(=O)NCC3CCCO3)c(C)c2c1` (centres unmarked) [compound 179]: below 20 µM. Same read-out and setting: next, `Cc1c(C(=O)NCCCN2CCCC2)oc2ccc(S(=O)(=O)N3CC(C)CC(C)C3)cc12` (centres unmarked) [compound 180]: below 5 µM; `CCCN(c1ccc2[nH]c(C(=O)NC3CC3)cc2c1)S(=O)(=O)c1ccccc1` [compound 181]: 5 to 20 µM. The same measure, in the same setting: next, `Cc1c(C(=O)NC2CC2)oc2ccc(S(=O)(=O)NCc3ccc(F)cc3)cc12` [compound 182]: below 20 µM. Turning to `O=C(c1cc2cc(S(=O)(=O)N3CCCCCC3)ccc2o1)N1CCC2(CC1)OCCO2` [compound 183], the concentration for half-maximal inhibition (IC50) lay within 5 to 20 µM. Consider `CC1CC(C)CN(S(=O)(=O)c2ccc3oc(C(=O)N4CCCC4)cc3c2)C1` (centres unmarked) [compound 184], for which the 50% inhibitory concentration (IC50) under setting [1] is below 5 µM. Still for that read-out and setting: the figure for `CC1CC(C)CN(S(=O)(=O)c2ccc3[nH]c(C(=O)N(C)Cc4ccccc4)cc3c2)C1` (centres unmarked) [compound 185] is below 5 µM. The same measure, in the same setting: next, `CCN(CC)C(=O)c1oc2ccc(S(=O)(=O)N(CC)CC)cc2c1C` [compound 186]: below 20 µM; `Cc1c(C(=O)NC2CCCC(C)C2C)oc2ccc(S(=O)(=O)N3CCOCC3)cc12` (centres unmarked) [compound 187]: 5 to 20 µM. The same measure, in the same setting: the figure for `CC1CCN(S(=O)(=O)c2ccc3oc(C(=O)N4CCN(C)CC4)cc3c2)CC1` [compound 188] is 5 to 20 µM; for `Cc1c(C(=O)NCc2ccccc2)oc2ccc(S(=O)(=O)N3CCC(C)CC3)cc12` [compound 189] it is 5 to 20 µM. For `CC1CCN(C(=O)c2cc3cc(S(=O)(=O)N4CCCCCC4)ccc3o2)CC1` [compound 190], the concentration for half-maximal inhibition (IC50) under setting [1] was below 5 µM. Same read-out and setting: the figure for `CCN(CC)C(=O)c1cc2cc(S(=O)(=O)N3CC(C)CC(C)C3)ccc2n1CC(O)CN1CCN(C)CC1` (centres unmarked) [compound 191] is below 5 µM.

Consider `CNC(=O)c1cc2cc(S(=O)(=O)N3CCC(C)CC3)ccc2[nH]1` [compound 192], for which, under setting [1], the 50% inhibitory concentration (IC50) is below 5 µM.

Regarding `Cc1c(C(=O)N2CCN(C)CC2)oc2ccc(S(=O)(=O)N3CC(C)CC(C)C3)cc12` (centres unmarked) [compound 193], under setting [1], the IC50 lay in the range of 5 to 20 µM. Still for that read-out and setting: the figure for `CC1CCN(C(=O)c2cc3cc(S(=O)(=O)N4CC(C)CC(C)C4)ccc3[nH]2)CC1` (centres unmarked) [compound 194] is below 5 µM; for `Cc1c(C(=O)N2CCCC(C)C2)oc2ccc(S(=O)(=O)N3CCOCC3)cc12` (centres unmarked) [compound 195] it is below 20 µM; for `CCN(CC)C(=O)c1cc2cc(S(=O)(=O)N3CC(C)CC(C)C3)ccc2[nH]1` (centres unmarked) [compound 196] it is below 5 µM. As to `Cc1c(C(=O)NCCC2=CCCCC2)oc2ccc(S(=O)(=O)N3CCOCC3)cc12` [compound 197], under setting [1], the 50% inhibitory concentration (IC50) is below 20 µM. Same read-out and setting: the figure for `CCOC(=O)N1CCN(C(=O)c2[nH]c3ccc(S(=O)(=O)N4CCC(C)CC4)cc3c2C)CC1` [compound 198] is 5 to 20 µM; for `CCN(CC)C(=O)c1oc2ccc(S(=O)(=O)N3CCCC(C)C3)cc2c1C` (centres unmarked) [compound 199] it is below 5 µM. Same read-out and setting: the figure for `Cc1c(C(=O)NCC2COc3ccccc3O2)oc2ccc(S(=O)(=O)N(C)C3CCCCC3)cc12` (centres unmarked) [compound 200] is 5 to 20 µM. On the same count and under the same terms, next, `Cc1c(C(=O)NCCc2ccccc2)oc2ccc(S(=O)(=O)N3CCCCCC3)cc12` [compound 201]: below 5 µM. Turning to `CCN(CC)C(=O)c1oc2ccc(S(=O)(=O)N3CCCCC3)cc2c1C` [compound 202], under setting [1], the IC50 is 5 to 20 µM.

Regarding `Cc1c(C(=O)NCc2ccccn2)oc2ccc(S(=O)(=O)N3CCC(C)CC3)cc12` [compound 203], the IC50 under setting [1] is 5 to 20 µM. Still for that read-out and setting: next, `Cc1c(C(=O)NC(C)C)oc2ccc(S(=O)(=O)N3CCC(F)(F)CC3)cc12` [compound 204]: 5 to 20 µM; `Cc1c(C(=O)NCC2CCCO2)oc2ccc(S(=O)(=O)N3CCCC(C)C3)cc12` (centres unmarked) [compound 205]: 5 to 20 µM; `Cc1c(C(=O)N(C)Cc2ccccc2)[nH]c2ccc(S(=O)(=O)N3CCC(C)CC3)cc12` [compound 206]: below 5 µM. Same read-out and setting: next, `Cc1c(C(=O)NC2CC2)oc2ccc(S(=O)(=O)Nc3ccncc3)cc12` [compound 207]: below 20 µM; `CC1CCN(S(=O)(=O)c2ccc3oc(C(=O)N4CCCCC4C)cc3c2)CC1` (centres unmarked) [compound 208]: below 5 µM; `CC1CC(C)CN(S(=O)(=O)c2ccc3[nH]c(C(=O)NC4CC4)cc3c2)C1` (centres unmarked) [compound 209]: below 5 µM. Take `Cc1c(C(=O)NC2CC2)oc2ccc(S(=O)(=O)N3CCCC3)cc12` [compound 210]: the IC50 under setting [1] is below 20 µM. The same measure, in the same setting: next, `CCOC(=O)N1CCN(C(=O)c2oc3ccc(S(=O)(=O)N4CCCCCC4)cc3c2C)CC1` [compound 211]: below 5 µM; `CCNC(=O)c1oc2ccc(S(=O)(=O)N3CC(C)CC(C)C3)cc2c1C` (centres unmarked) [compound 212]: below 5 µM. Turning to `Cc1c(C(=O)N(C)Cc2ccccc2)oc2ccc(S(=O)(=O)N3CCCC(C)C3)cc12` (centres unmarked) [compound 213], the IC50 under setting [1] is below 5 µM. As to `CNC(=O)c1oc2ccc(S(=O)(=O)N3CC(C)CC(C)C3)cc2c1C` (centres unmarked) [compound 214], the IC50 under setting [1] was below 5 µM.

`CCN(CC)S(=O)(=O)c1ccc2oc(C(=O)NC3CCC(C)CC3)c(C)c2c1` (centres unmarked) [compound 215]: the IC50 under setting [1] was in the range of 5 to 20 µM. Same read-out and setting: next, `CNC(=O)c1[nH]c2ccc(S(=O)(=O)N3CC(C)CC(C)C3)cc2c1C` (centres unmarked) [compound 216]: below 5 µM; `CC1CC(C)CN(S(=O)(=O)c2ccc3[nH]c(C(=O)N(C(C)C)C(C)C)cc3c2)C1` (centres unmarked) [compound 217]: below 5 µM; `CC(C)NC(=O)c1cc2cc(S(=O)(=O)N3CCCCCC3)ccc2o1` [compound 218]: 5 to 20 µM. In the case of `CC1CCN(S(=O)(=O)c2ccc3oc(C(=O)NC4CCCCC4)cc3c2)CC1` [compound 219], the IC50 under setting [1] is 5 to 20 µM. The same measure, in the same setting: next, `CN1CCN(C(=O)c2cc3cc(S(=O)(=O)N4CCCCCC4)ccc3[nH]2)CC1` [compound 220]: 5 to 20 µM. Same read-out and setting: next, `CCNC(=O)c1[nH]c2ccc(S(=O)(=O)N3CC(C)CC(C)C3)cc2c1C` (centres unmarked) [compound 221]: 5 to 20 µM. Turning to `O=C(c1cc2cc(S(=O)(=O)N3CCCCCC3)ccc2o1)N1CCCC1` [compound 222], the IC50 under setting [1] fell in the range of 5 to 20 µM. Still for that read-out and setting: the figure for `Cc1c(C(=O)NCCCc2ccccc2)[nH]c2ccc(S(=O)(=O)N3CCC(C)CC3)cc12` [compound 223] is below 5 µM; for `Cc1c(C(=O)NC2CC2)oc2ccc(S(=O)(=O)Nc3ccccc3)cc12` [compound 224] it is 5 to 20 µM; for `CC1CC(C)CN(S(=O)(=O)c2ccc3oc(C(=O)NCCC4CCOCC4)cc3c2)C1` (centres unmarked) [compound 225] it is below 5 µM. As for `CC1CC(C)CN(C(=O)c2cc3cc(S(=O)(=O)N4CCCCCC4)ccc3o2)C1` (centres unmarked) [compound 226], the IC50 under setting [1] was below 5 µM. The same measure, in the same setting: next, `Cc1c(C(=O)N2CCCC(C)C2)[nH]c2ccc(S(=O)(=O)N3CC(C)CC(C)C3)cc12` (centres unmarked) [compound 227]: below 5 µM. Same read-out and setting: next, `Cc1c(C(=O)NC2CC2)oc2ccc(S(=O)(=O)Nc3ccc(F)cc3)cc12` [compound 228]: below 20 µM. Still for that read-out and setting: the figure for `CCCCN(C)C(=O)c1cc2cc(S(=O)(=O)N3CC(C)CC(C)C3)ccc2o1` (centres unmarked) [compound 229] is below 5 µM; for `CCN(CC)C(=O)c1cc2cc(S(=O)(=O)N3CC(C)CC(C)C3)ccc2n1CCCN(C)C` (centres unmarked) [compound 230] it is 5 to 20 µM.

In the case of `CC1CCN(S(=O)(=O)c2ccc3oc(C(=O)N4CCCC4)cc3c2)CC1` [compound 231], under setting [1], the IC50 is 5 to 20 µM. In turn, `Cc1c(C(=O)N2CCC3(CC2)OCCO3)[nH]c2ccc(S(=O)(=O)N3CCCCCC3)cc12` [compound 232] had an IC50 of 5 to 20 µM. Regarding `Cc1c(C(=O)N2CC(C)CC(C)C2)oc2ccc(S(=O)(=O)N3CCCC(C)C3)cc12` (centres unmarked) [compound 233], the concentration for half-maximal inhibition (IC50) under setting [1] is below 5 µM. The same measure, in the same setting: the figure for `CC1CCN(S(=O)(=O)c2ccc3oc(C(=O)NC(C)C)cc3c2)CC1` [compound 234] is below 5 µM; for `CCOC(=O)N1CCN(C(=O)c2[nH]c3ccc(S(=O)(=O)N4CCCCCC4)cc3c2C)CC1` [compound 235] it is 5 to 20 µM; for `Cc1c(C(=O)N2CCSCC2)oc2ccc(S(=O)(=O)N3CCC(C)CC3)cc12` [compound 236] it is 5 to 20 µM.

For `Cc1c(C(=O)NC2CC2)oc2ccc(S(=O)(=O)NCc3ccccc3)cc12` [compound 237], the half-inhibitory concentration (IC50) under setting [1] was below 20 µM. Regarding `Cc1c(C(=O)NCC2CCCO2)oc2ccc(S(=O)(=O)N3CCC(C)CC3)cc12` (centres unmarked) [compound 238], the 50% inhibitory concentration (IC50) under setting [1] fell in the range of 5 to 20 µM. Regarding `Cc1c(C(=O)N2CCCCC2C)[nH]c2ccc(S(=O)(=O)N3CCC(C)CC3)cc12` (centres unmarked) [compound 239], the IC50 under setting [1] was in the range of 5 to 20 µM.

As for `CC1CC(C)CN(S(=O)(=O)c2ccc3oc(C(=O)N4CCCCCC4)cc3c2)C1` (centres unmarked) [compound 240], under setting [1], the IC50 was below 5 µM. On to `CC1CC(C)CN(S(=O)(=O)c2ccc3[nH]c(C(=O)N4CCCCC4C)cc3c2)C1` (centres unmarked) [compound 241], for which the IC50 under setting [1] was below 5 µM. Still for that read-out and setting: the figure for `Cc1c(C(=O)NCC2CCOCC2)oc2ccc(S(=O)(=O)N3CC(C)CC(C)C3)cc12` (centres unmarked) [compound 242] is below 5 µM; for `Cc1c(C(=O)N2CC(C)CC(C)C2)oc2ccc(S(=O)(=O)N3CCCCCC3)cc12` (centres unmarked) [compound 243] it is 5 to 20 µM.

As to `CCN(CC)C(=O)c1cc2cc(S(=O)(=O)N3CCC(C)CC3)ccc2n1C` [compound 244], the IC50 under setting [1] was below 5 µM.
